Active and inactive are the calls of the source. No cut-off for these calls is given here.
Tests used:
[1] = test system: MCF/ADR; assay: Inhibition of induction of apoptosis in human multidrug resistant MCF/ADR cells assessed as inhibition of cleavage of lamin A at 0.3 uM after 48 hrs by immunoblot analysis in presence of caspase 9-specific inhibitor; type: functional, cell-based
[2] = molecular target: Transcription factor Jun (Homo sapiens) (UniProt P05412); assay: Induction of c-Jun phosphorylation in human drug-sensitive MCF/WT cells at 0.3 uM; type: cell-based
[3] = test system: MCF; assay: Induction of c-Jun expression in human drug-sensitive MCF cells at 0.3 uM; type: functional, cell-based
[4] = molecular target: Transcription factor Jun (Homo sapiens) (UniProt P05412); assay: Induction of c-Jun serine 63 phosphorylation in human multidrug resistant MCF/ADR cells at 0.3 uM; type: cell-based
[5] = molecular target: Transcription factor Jun (Homo sapiens) (UniProt P05412); assay: Reduction in induction of c-Jun expression in human multidrug resistant MCF/ADR cells at 0.3 uM after 48 hrs by immunoblot analysis in presence of pan-specific caspase inhibitor; type: cell-based
[6] = Cell cycle arrest in human multidrug resistant MCF/ADR cells assessed as accumulation at S phase at 0.3 uM after 24 hrs by propidium fluorescence flow cytometry; type: functional, cell-based
[7] = test system: MCF/ADR; assay: Cytocidal effect in human multidrug resistant MCF/ADR cells assessed as decrease in number of viable cells at 30 nM after 6 days by MTT colorimetric assay; type: functional, cell-based
[8] = molecular target: Transcription factor Jun (Homo sapiens) (UniProt P05412); assay: Reduction in induction of c-Jun expression in human multidrug resistant MCF/ADR cells at 0.3 uM after 48 hrs by immunoblot analysis in presence of caspase 9 inhibitor; type: cell-based
[9] = molecular target: Bcl-2-like protein 1 (Homo sapiens) (UniProt Q07817); assay: Inhibition of induction of Bcl-x/s phosphorylation in human multidrug resistant MCF/ADR cells at 0.3 uM after 48 hrs in presence of SP600125; type: functional, cell-based
[10] = test system: MDA-MB-231; assay: Induction of apoptosis in human multidrug resistant MDA-MB-231 cells assessed as accumulation of PARP at 0.3 uM after 48 hrs by immunoblot analysis; type: functional, cell-based
[11] = test system: MCF/ADR; assay: Induction of apoptosis in human multidrug resistant MCF/ADR cells assessed as cleavage of lamin A at 0.3 uM by immunoblot analysis; type: functional, cell-based
[12] = Cell cycle arrest in human drug-sensitive MCF/WT cells assessed as accumulation at G0/G1 phase at 0.3 uM after 48 hrs by propidium fluorescence flow cytometry; type: functional, cell-based
[13] = test system: MCF/WT; assay: Induction of apoptosis in human drug sensitive MCF/WT cells assessed as annexin V binding to phosphatidylserine at 0.3 uM after 6 hrs; type: functional, cell-based
[14] = Cell cycle arrest in human drug-sensitive MCF/WT cells assessed as accumulation at sub G0/G1 phase at 0.3 uM after 72 hrs by propidium fluorescence flow cytometry; type: functional, cell-based
[15] = test system: MCF/ADR; assay: Increase in p21CIP accumulation in human multidrug resistant MCF/ADR cells at 0.3 uM after 48 hrs by immunoblot analysis; type: functional, cell-based
[16] = test system: MCF/ADR; assay: Induction of apoptosis in human multidrug resistant MCF/ADR cells assessed as accumulation of PARP at 0.3 uM after 72 hrs by immunoblot analysis; type: functional, cell-based
[17] = test system: MCF/WT; assay: Induction of apoptosis in human drug-sensitive MCF/WT cells assessed as activation of caspase 6 at 0.3 uM by immunoblot analysis; type: functional, cell-based
[18] = test system: MCF-10A; assay: Induction of apoptosis in human MCF10A cells assessed as accumulation of PARP at 0.3 uM after 48 hrs by immunoblot analysis; type: functional, cell-based
[19] = test system: MCF/ADR; assay: Reduction in induction of apoptosis in human multidrug resistant MCF/ADR cells assessed as suppression of caspase 9 activation at 0.3 uM after 48 hrs by immunoblot analysis in presence of rottlerin; type: functional, cell-based
[20] = test system: MCF/ADR; assay: Reduction in induction of apoptosis in human multidrug resistant MCF/ADR cells assessed as suppression of lamin A cleavage at 0.3 uM after 48 hrs by immunoblot analysis in presence of rottlerin; type: functional, cell-based
[21] = molecular target: T1, c-Jun N-terminal kinase, JNK (Homo sapiens) (UniProt P45983+P53779+P45984); assay: Induction of JNK activity in human multidrug resistant MCF/ADR cells assessed as mitochondrial localization of phosphorylated JNK with Bcl-x/l; type: cell-based
[22] = Cell cycle arrest in human drug-sensitive MCF/WT cells assessed as accumulation at sub G0/G1 phase at 0.3 uM after 48 hrs by propidium fluorescence flow cytometry; type: functional, cell-based
[23] = Inhibition of nuclear protein kinase 1
[24] = test system: MDA-MB-468; assay: Induction of apoptosis in human multidrug resistant MDA-MB-468 cells assessed as accumulation of PARP at 0.3 uM after 48 hrs by immunoblot analysis; type: functional, cell-based
[25] = Cell cycle arrest in human drug-sensitive MCF/WT cells assessed as accumulation at G2/M phase at 0.3 uM after 72 hrs by propidium fluorescence flow cytometry; type: functional, cell-based
[26] = Cell cycle arrest in human drug-sensitive MCF/WT cells assessed as accumulation at S phase at 0.3 uM after 24 hrs by propidium fluorescence flow cytometry; type: functional, cell-based
[27] = test system: MCF/ADR; assay: Reduction of […] cleavage in human multidrug resistant MCF/ADR cells transfected with c-Jun siRNA at 0.3 uM after 48 hrs by immunoblot analysis; type: functional, cell-based
[28] = test system: MCF/ADR; assay: Inhibition of induction of apoptosis in human multidrug resistant MCF/ADR cells assessed as inhibition of cleavage of PARP at 0.3 uM after 48 hrs by immunoblot analysis in presence of caspase 9-specific inhibitor; type: functional, cell-based
[29] = Cell cycle arrest in human multidrug resistant MCF/ADR cells assessed as accumulation at sub G0/G1 phase at 0.3 uM after 72 hrs by propidium fluorescence flow cytometry; type: functional, cell-based
[30] = test system: MCF/ADR; assay: Increase in Bcl-x/l levels in human multidrug resistant MCF/ADR cells at 0.3 uM by immunoblot analysis; type: functional, cell-based
[31] = test system: MCF/WT; assay: Cytostatic effect in human drug sensitive MCF/WT cells assessed as slight increase in number of viable cells at 30 nM after 6 days by MTT colorimetric assay; type: functional, cell-based
[32] = test system: MCF/ADR; assay: Blockade of apoptosis induction in human multidrug resistant MCF/ADR cells at 0.3 uM after 48 hrs in presence of SP600125; type: functional, cell-based
[33] = molecular target: T1, c-Jun N-terminal kinase, JNK (Homo sapiens); assay: Inhibition of induction of JNK phosphorylation in human multidrug resistant MCF/ADR cells at 0.3 uM after 48 hrs by immunocytochemical analysis in presence of rottlerin; type: cell-based
[34] = molecular target: Transcription factor Jun (Homo sapiens) (UniProt P05412); assay: Reduction in induction of phosphorylated form of c-Jun in SP600125 pretreated human multidrug resistant MCF/ADR cells at 0.3 uM after 48 hrs by immunoblot analysis; type: cell-based
[35] = test system: MCF/ADR; assay: Induction of c-Jun expression in human multidrug resistant MCF/ADR cells at 0.3 uM; type: functional, cell-based
[36] = test system: MCF/ADR; assay: Induction of JNK p54 isoform phosphorylation in human multidrug resistant MCF/ADR cells at 0.3 uM after 48 hrs by immunoblot analysis; type: cell-based
[37] = Cell cycle arrest in human drug-sensitive MCF/WT cells assessed as accumulation at S phase at 0.3 uM after 72 hrs by propidium fluorescence flow cytometry; type: functional, cell-based
[38] = test system: MCF/ADR; assay: Reduction in induction of apoptosis in SP600125 pretreated human multidrug resistant MCF/ADR cells assessed as reduction of cleavage of PARP at 0.3 uM after 48 hrs by immunoblot analysis; type: functional, cell-based
[39] = test system: MCF/ADR; assay: Increase in Bax levels in human multidrug resistant MCF/ADR cells at 0.3 uM by immunoblot analysis; type: functional, cell-based

Sequence of Transcription factor Jun (Homo sapiens) (P05412 whole entry): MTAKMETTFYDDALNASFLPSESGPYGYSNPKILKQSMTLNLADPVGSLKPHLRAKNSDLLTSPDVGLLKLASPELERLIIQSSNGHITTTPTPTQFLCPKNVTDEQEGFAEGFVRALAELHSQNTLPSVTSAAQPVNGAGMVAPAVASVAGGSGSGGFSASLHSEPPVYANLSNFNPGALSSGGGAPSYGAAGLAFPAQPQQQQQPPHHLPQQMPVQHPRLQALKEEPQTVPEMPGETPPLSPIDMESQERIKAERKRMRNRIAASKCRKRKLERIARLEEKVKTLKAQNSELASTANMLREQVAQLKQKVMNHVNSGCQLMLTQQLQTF
Sequence of Bcl-2-like protein 1 (Homo sapiens) (Q07817 whole entry): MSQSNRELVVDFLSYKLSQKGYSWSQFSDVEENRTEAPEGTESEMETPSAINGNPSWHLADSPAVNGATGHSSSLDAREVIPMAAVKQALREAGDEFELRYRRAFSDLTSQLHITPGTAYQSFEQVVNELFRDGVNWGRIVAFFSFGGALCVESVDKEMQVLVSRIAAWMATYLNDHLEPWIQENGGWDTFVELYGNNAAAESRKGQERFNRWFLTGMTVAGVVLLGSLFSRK

SMILES: NC(=O)c1cn([C@@H]2O[C@H](CO)[C@@H](O)[C@H]2O)c2ncnc(N)c12 [SANGIVAMYCIN]
- Activity [1]: Active
- Activity [2]: inactive
- Activity [3]: Active
- Activity [4]: Active
- Activity [5]: inactive
- Activity [6]: 25%
- Activity [7]: Active
- Activity [8]: inactive
- Activity [9]: Active
- Activity [10]: Active
- Activity [11]: Active
- Activity [12]: 61%
- Activity [13]: inactive
- Activity [14]: 4%
- Activity [15]: inactive
- Activity [16]: Active
- Activity [17]: inactive
- Activity [18]: inactive
- Activity [19]: Active
- Activity [20]: Active
- Activity [21]: Active
- Activity [22]: 3%
- Ki [23]: 200 µM
- Activity [24]: Active
- Activity [25]: 28%
- Activity [26]: 23%
- Activity [27]: inactive
- Activity [28]: Active
- Activity [29]: 50%
- Activity [30]: Active
- Activity [31]: Active
- Activity [32]: Active
- Activity [33]: Active
- Activity [34]: Active
- Activity [35]: Active
- Activity [36]: Active
- Activity [37]: 11%
- Activity [38]: Active
- Activity [39]: Active
